In US4797415A, “Benzofuran derivatives and use thereof for treating hyperuricemia” (Kotobuki Seiyaku Company Limited, priority 1982, dated 1989):
Where two headings read alike, the source gives them in different places.

Tests used:
[1] = tested on: phenol red retention in circulation; assay: Uricosuric activity by phenol red retention test in mice; type: in vivo, male mice; settings: Mus musculus, 1 h
Procedure: (§1) Blood samples were collected from the retro-orbital plexus into heparinized capillary tubes 60 minutes after the phenol red injection. The retention of phenol red in circulation was determined according to the method described in J. Med. Pharmaceu.
Benzobromarone was administered subcutaneously to mice in an amount of 200 mg./kg. as a control or standard.

[2] = tested on: phenol red retention; assay: Uricosuric activity by phenol red method in rats; type: in vivo; settings: p.o. 100 mg/kg
Procedure: as §1
The same test of uricosuric activity was applied to rats.

[3] = in vivo; settings: mouse, po, p.o. in mice
Text: In general, the compounds related to this invention have a potent uriosuric activiity and some of them are considered promising for clinical use. The toxicity of these compounds is much lower than that of the typical uricosuric agent: benzbromarone.

[4] = po, mice, p.o. 200 mg/kg, 30 min before 75 mg/kg phenol red, blood 60 min after phenol red, read-out: phenol red retention, percentage by comparison with the control group, P.O. (200 mg/kg)
[5] = sc, mice, s.c. 200 mg/kg, 30 min before 75 mg/kg phenol red, blood 60 min after phenol red, read-out: phenol red retention, percentage by comparison with the control group, S.C. (200 mg/kg)

SMILES: CCc1oc2ccccc2c1C(=O)c1ccc(OCC(=O)O)c(C)c1C [Compound 35, 2,3-dimethyl-4-(2-ethyl-3-benzofuroyl)phenoxyacetic acid]
- response vs control in vivo at 200 mg/kg [1, 4]: 319 ± 14.3%
- Phenol Red Retention % in Rats 100 mg/kg (p.o.) [2]: 269.0 ± 31.0%

SMILES: CCc1oc2ccccc2c1C(=O)c1cc(Br)c(O)c(Br)c1 [Benzbromarone, benzbromarone, reference compound]
- response vs control in vivo at 200 mg/kg ([1]; sc, read-out: phenol red retention, percentage by comparison with the control group, S.C. (200 mg/kg)): 184%
- Phenol Red Retention % in Rats 100 mg/kg (p.o.) [2]: 163.9 ± 25.0%
- LD50 [3]: 361 mg/kg

SMILES: CCc1oc2ccccc2c1C(=O)c1ccc(OCC(=O)O)cc1 [Compound 3, 4-(2-ethyl-3-benzofuroyl)phenoxyacetic acid]
- response vs control in vivo at 200 mg/kg [1, 4]: 175 ± 15.5%
- response vs control in vivo at 200 mg/kg [1, 5]: 169 ± 18.1%
- Phenol Red Retention % in Rats 100 mg/kg (p.o.) [2]: 194.6 ± 29.7%
- LD50 [3]: 2110 mg/kg

SMILES: CCc1oc2ccccc2c1C(=O)c1cc(C)c(OCC(=O)O)cc1C [Compound 39]
- response vs control in vivo at 200 mg/kg [1, 4]: 410 ± 28.6%
- Phenol Red Retention % in Rats 100 mg/kg (p.o.) [2]: 175.7 ± 21.6%

SMILES: CCc1oc2ccccc2c1C(=O)c1ccc(OCC(=O)O)c(Cl)c1 [Compound 22, 2-chloro-4-(2-ethyl-3-benzofuroyl)phenoxyacetic acid]
- response vs control in vivo at 200 mg/kg [1, 4]: 190 ± 26.3%
- response vs control in vivo at 200 mg/kg [1, 5]: 211 ± 33.3%
- Phenol Red Retention % in Rats 100 mg/kg (p.o.) [2]: 217.2 ± 17.2%

SMILES: Cc1oc2ccccc2c1C(=O)c1ccc(O)cc1 [Compound 16, 2-methyl-3-(4-hydroxybenzoyl)benzofuran]
- response vs control in vivo at 200 mg/kg [1, 4]: 112 ± 12.5%
- response vs control in vivo at 200 mg/kg [1, 5]: 111 ± 11.1%

SMILES: CCc1oc2ccccc2c1C(=O)c1cc(C)c(O)cc1C [Compound 36, 2-ethyl-3-(2,5-dimethyl-4-hydroxybenzoyl)benzofuran]
- response vs control in vivo at 200 mg/kg [1, 4]: 131 ± 15.6%

SMILES: CCOC(=O)COc1ccc(C(OCC)c2c(CC)oc3ccccc23)cc1 (stereo not shown) [Compound 14]
- response vs control in vivo at 200 mg/kg [1, 4]: 120 ± 15%
- response vs control in vivo at 200 mg/kg [1, 5]: 135 ± 34.6%

SMILES: CCc1oc2ccccc2c1C(=O)c1ccc(OCC(=O)O)c(C)c1 [Compound 25, 2-methyl-4-(2-ethyl-3-benzofuroyl)phenoxyacetic acid]
- response vs control in vivo at 200 mg/kg [1, 4]: 200 ± 25%
- response vs control in vivo at 200 mg/kg [1, 5]: 189 ± 27.8%
- Phenol Red Retention % in Rats 100 mg/kg (p.o.) [2]: 208.1 ± 27.0%

SMILES: CCc1oc2ccccc2c1C(=O)c1cc(C)c(OCC(=O)OC)cc1C [Compound 37, Methyl 2,5-dimethyl-4-(2-ethyl-3-benzofuroyl)phenoxyacetate]
- response vs control in vivo at 200 mg/kg [1, 4]: 254 ± 15.6%

SMILES: CCOC(=O)COc1ccc(C(=O)c2c(CC)oc3ccccc23)c(C)c1C [Compound 34, Ethyl 2,3-dimethyl-4-(2-ethyl-3-benzofuroyl)phenoxyacetate]
- response vs control in vivo at 200 mg/kg [1, 4]: 124 ± 28.6%

SMILES: CCOC(=O)COc1ccc(C(O)c2c(CC)oc3ccccc23)cc1 (stereo not shown) [Compound 13, Ethyl 4-(2-ethyl-3-hydroxymethylbenzofuranyl)phenoxyacetate]
- response vs control in vivo at 200 mg/kg [1, 5]: 114 ± 14.3%

SMILES: CCc1oc2ccccc2c1C(=O)c1cc(C)c(OCC(=O)O)c(C)c1 [Compound 42, 2,6-dimethyl-4-(2-ethyl-3-benzofuroyl)phenoxyacetic acid]
- response vs control in vivo at 200 mg/kg [1, 4]: 394 ± 44.4%

SMILES: CCc1sc2ccccc2c1C(=O)c1ccc(OCC(=O)O)cc1 [Compound 31, 4-(2-ethyl-3-benzothenoyl)phenoxyacetic acid]
- response vs control in vivo at 200 mg/kg [1, 4]: 162 ± 31.3%
- response vs control in vivo at 200 mg/kg [1, 5]: 144 ± 22.2%
